Laboratory results from article PMC10974507, “Design, Synthesis, Biological Evaluation and Molecular Docking of Novel F-18-Labeled Focal Adhesion Kinase Inhibitors as Potential Tumor Radiotracers” (Molecules, 2024).

Assays:
FAK = FAK (Homo sapiens, UniProt Q05397); assay: FAK inhibitory assay (homogeneous time-resolved fluorescence kinase assay); assay type: biochemical; conditions: in vitro enzyme activity against FAK
Experimental: The inhibitory activities of the 7a–7c against FAK were tested using a homogeneous time-resolved fluorescence methodology-based kinase assay.
The FAK kinase inhibition test and the partition coefficient test were conducted according to a previously reported method.

[1] = test system: mice bearing S-180 tumors; assay: Biodistribution in S-180 tumor-bearing mice; assay type: in vivo, Kunming mice; conditions: S-180 tumor, 30 min after intravenous injection, mean ± SD, n = 3
Experimental: Kunming mice (female, 18−22 g) and S180 ascites mice were purchased from Beijing Xinglong Animal Technology Co., Ltd., Beijing, China and Beijing Vital River Animal Technology Co., Ltd., Beijing, China, respectively. All the mice-concerned experiments were conducted in strict accordance with the “Guidelines for Humane Treatment of Laboratory Animals”, and the whole process was approved by the Animal Protection Committee of Beijing Normal University (Approval Code: BNUCC-EAW-2023-16; Approval date: 14 June 2023). The specific experimental operations were in accordance with those methods described previously.

FAK, sequence (Q05397 whole entry, species assumed): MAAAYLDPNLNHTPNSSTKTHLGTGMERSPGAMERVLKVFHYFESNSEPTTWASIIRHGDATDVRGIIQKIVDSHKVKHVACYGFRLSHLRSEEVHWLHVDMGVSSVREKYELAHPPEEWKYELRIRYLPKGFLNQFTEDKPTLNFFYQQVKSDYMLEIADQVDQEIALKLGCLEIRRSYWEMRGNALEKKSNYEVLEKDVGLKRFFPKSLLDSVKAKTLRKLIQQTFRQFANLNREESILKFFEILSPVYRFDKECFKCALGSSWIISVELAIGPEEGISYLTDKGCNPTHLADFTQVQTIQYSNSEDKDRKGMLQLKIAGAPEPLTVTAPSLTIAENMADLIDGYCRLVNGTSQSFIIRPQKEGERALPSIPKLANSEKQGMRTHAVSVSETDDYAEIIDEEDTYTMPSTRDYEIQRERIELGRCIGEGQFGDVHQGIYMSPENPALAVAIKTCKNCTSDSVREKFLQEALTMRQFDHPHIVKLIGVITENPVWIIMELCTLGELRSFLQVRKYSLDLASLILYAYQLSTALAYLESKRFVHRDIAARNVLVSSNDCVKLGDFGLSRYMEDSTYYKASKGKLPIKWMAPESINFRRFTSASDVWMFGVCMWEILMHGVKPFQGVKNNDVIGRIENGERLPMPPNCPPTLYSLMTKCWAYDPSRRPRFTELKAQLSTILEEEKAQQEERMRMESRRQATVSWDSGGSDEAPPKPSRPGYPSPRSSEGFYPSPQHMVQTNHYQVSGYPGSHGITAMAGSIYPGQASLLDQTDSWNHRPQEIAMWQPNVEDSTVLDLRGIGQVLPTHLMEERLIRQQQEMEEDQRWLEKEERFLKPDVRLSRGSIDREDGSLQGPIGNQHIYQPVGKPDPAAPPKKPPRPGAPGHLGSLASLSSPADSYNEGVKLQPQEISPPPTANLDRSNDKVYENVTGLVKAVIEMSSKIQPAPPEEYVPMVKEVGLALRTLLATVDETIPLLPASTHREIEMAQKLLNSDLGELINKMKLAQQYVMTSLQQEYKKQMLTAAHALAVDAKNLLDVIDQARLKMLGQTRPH

Compound `CNC(=O)c1cc(N2CCS(=O)(=O)CC2)ccc1Nc1nc(Nc2ccc(OCCOCCOCCF)cc2)ncc1Br` [Compound 7a, 2-((5-bromo-2-((4-(2-(2-(2-fluoroethoxy)ethoxy)ethoxy)phenyl)amino)pyrimidin-4-yl)amino)-5-(1,1-dioxidothiomorpholino)-N-methylbenzamide] has an IC50 (FAK) of 5.59 nM.
With `CNC(=O)c1cc(N2CCS(=O)(=O)CC2)ccc1Nc1nc(Nc2ccc(OCCOCCOCCF)c(C(=O)N3CCN(C(C)=O)CC3)c2)ncc1Br` [Compound 7b, 2-((2-((3-(4-acetylpiperazine-1-carbonyl)-4-(2-(2-(2-fluoroethoxy)ethoxy)ethoxy)phenyl)amino)-5-bromopyrimidin-4-yl)amino)-5-(1,1-dioxidothiomorpholino)-N-methylbenzamide] the IC50 (FAK) was 24.6 nM.
For `CNC(=O)c1cc(N2CCS(=O)(=O)CC2)ccc1Nc1nc(Nc2ccc(OCCOCCOCCF)c(-c3cnn(C)c3)c2)ncc1Br` [Compound 7c, 2-((5-bromo-2-((4-(2-(2-(2-fluoroethoxy)ethoxy)ethoxy)-3-(1-methyl-1H-pyrazol-4-yl)phenyl)amino)pyrimidin-4-yl)amino)-5-(1,1-dioxidothiomorpholino)-N-methylbenzamide], the IC50 (FAK) was 1.27 nM and the “Biodistribution, Tumor (tumor uptake)” value [1] was 6.58 ± 0.46 % ID/g.
Work on `CNC(=O)c1cc(N2CCN(C(C)=O)CC2)ccc1Nc1nc(Nc2ccc(OCCOCCOCCF)c(C(=O)N3CCOCC3)c2)ncc1Br` [Compound 7d, 5-(4-acetylpiperazin-1-yl)-2-((5-bromo-2-((4-(2-(2-(2-fluoroethoxy)ethoxy)ethoxy)-3-(morpholine-4-carbonyl)phenyl)amino)pyrimidin-4-yl)amino)-N-methylbenzamide] yielded an IC50 (FAK) of 1970 nM.
